Source: ChEMBL document CHEMBL1909294, “Translating clinical findings into knowledge in drug safety evaluation--drug induced liver injury prediction system (DILIps)” (PLoS Comput Biol, 2011)

Tests used:
Hepatotoxicity [1] = system: Hepatotoxicity;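 as to HepSE bilirubinemia: bilirubinemia hepatic side effect score drawn from the DILIps training data, a prediction system for drug-induced liver injury; call rule not given here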;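 as to HepSE cholecystitis: Cholecystitis-related hepatic side effect score drawn from the DILIps (drug-induced liver injury prediction) training data set; call rule not given here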;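 as to HepSE cholelithiasis: hepatic side effect score for cholelithiasis, drawn from the DILIps training data for predicting drug-induced liver injury; call rule not given here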;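 as to HepSE cirrhosis: cirrhosis hepatic side effect score taken from the DILIps (drug-induced liver injury prediction) training set; call rule not given here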;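 as to HepSE elevated liver function tests: hepatic side effect score for raised liver function tests, as recorded in the DILIps training set used for predicting drug-induced liver injury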; as to HepSE hepatic failure: call rule not given here;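 as to HepSE hepatomegaly: hepatic side effect score for hepatomegaly, taken from the training set of the DILIps drug-induced liver injury prediction system; call rule not given here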
Hepatotoxicity [2] = system: Hepatotoxicity; remark: listed apart in the source;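 as to HepSE bilirubinemia: bilirubinemia hepatic side effect score drawn from the DILIps training data, a prediction system for drug-induced liver injury; call rule not given here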;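 as to HepSE cholecystitis: Cholecystitis-related hepatic side effect score drawn from the DILIps (drug-induced liver injury prediction) training data set; call rule not given here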;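 as to HepSE cholelithiasis: hepatic side effect score for cholelithiasis, drawn from the DILIps training data for predicting drug-induced liver injury; call rule not given here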;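 as to HepSE cirrhosis: cirrhosis hepatic side effect score taken from the DILIps (drug-induced liver injury prediction) training set; call rule not given here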;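 as to HepSE elevated liver function tests: hepatic side effect score for raised liver function tests, as recorded in the DILIps training set used for predicting drug-induced liver injury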; as to HepSE hepatic failure: call rule not given here
Hepatotoxicity [3] = system: Hepatotoxicity; remark: listed apart in the source;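 as to HepSE bilirubinemia: bilirubinemia hepatic side effect score drawn from the DILIps training data, a prediction system for drug-induced liver injury; call rule not given here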;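 as to HepSE cholecystitis: Cholecystitis-related hepatic side effect score drawn from the DILIps (drug-induced liver injury prediction) training data set; call rule not given here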;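 as to HepSE cholelithiasis: hepatic side effect score for cholelithiasis, drawn from the DILIps training data for predicting drug-induced liver injury; call rule not given here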;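 as to HepSE cirrhosis: cirrhosis hepatic side effect score taken from the DILIps (drug-induced liver injury prediction) training set; call rule not given here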;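 as to HepSE elevated liver function tests: hepatic side effect score for raised liver function tests, as recorded in the DILIps training set used for predicting drug-induced liver injury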; as to HepSE hepatic failure: call rule not given here
Hepatotoxicity [4] = system: Hepatotoxicity; remark: listed apart in the source;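 as to HepSE bilirubinemia: bilirubinemia hepatic side effect score drawn from the DILIps training data, a prediction system for drug-induced liver injury; call rule not given here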;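 as to HepSE cholecystitis: Cholecystitis-related hepatic side effect score drawn from the DILIps (drug-induced liver injury prediction) training data set; call rule not given here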;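 as to HepSE cholelithiasis: hepatic side effect score for cholelithiasis, drawn from the DILIps training data for predicting drug-induced liver injury; call rule not given here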;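 as to HepSE cirrhosis: cirrhosis hepatic side effect score taken from the DILIps (drug-induced liver injury prediction) training set; call rule not given here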;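 as to HepSE elevated liver function tests: hepatic side effect score for raised liver function tests, as recorded in the DILIps training set used for predicting drug-induced liver injury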; as to HepSE hepatic failure: call rule not given here
Hepatotoxicity [5] = system: Hepatotoxicity; remark: listed apart in the source; as to HepSE hepatic failure: call rule not given here
Hepatotoxicity [6] = system: Hepatotoxicity; remark: listed apart in the source; as to HepSE hepatic failure: call rule not given here
Hepatotoxicity [7] = system: Hepatotoxicity; remark: listed apart in the source
Hepatotoxicity [8] = system: Hepatotoxicity; remark: listed apart in the source
Hepatotoxicity [9] = system: Hepatotoxicity; remark: listed apart in the source
Hepatotoxicity [10] = system: Hepatotoxicity; remark: listed apart in the source
Hepatotoxicity [11] = system: Hepatotoxicity; remark: listed apart in the source
Hepatotoxicity [12] = system: Hepatotoxicity; remark: listed apart in the source
Hepatotoxicity [13] = system: Hepatotoxicity; remark: listed apart in the source
Hepatotoxicity [14] = system: Hepatotoxicity; remark: listed apart in the source

Row | Molecule | HepSE_bilirubinemia (Hepatotoxicity [1]) | HepSE_cholecystitis (Hepatotoxicity [2]) | HepSE_cholelithiasis (Hepatotoxicity [3]) | HepSE_cirrhosis (Hepatotoxicity [4]) | HepSE_elevated liver function tests (Hepatotoxicity [5]) | HepSE_hepatic failure (Hepatotoxicity [6]) | HepSE_hepatic necrosis (Hepatotoxicity [7]) | HepSE_hepatitis (Hepatotoxicity [8]) | HepSE_hepatomegaly (Hepatotoxicity [9]) | HepSE_jaundice (Hepatotoxicity [10]) | HepSE_liver disease (Hepatotoxicity [11]) | HepSE_liver fatty (Hepatotoxicity [12]) | HepSE_liver function tests abnormal (Hepatotoxicity [13]) | HepSE_Combined Scores (Hepatotoxicity [14]) | other results
1 | CC(C)(C#N)c1cc(Cn2cncn2)cc(C(C)(C)C#N)c1 [ANASTROZOLE] | 0 | 0 | 0 | 0 | 1 | 0 | 0 | 1 | 0 | 0 | 0 | 0 | 0 | 2 | 
2 | O=C1CN=C(c2ccccc2)c2cc([N+](=O)[O-])ccc2N1 [NITRAZEPAM] | 0 | 0 | 0 | 0 | 0 | 0 | 0 | 0 | 0 | 0 | 0 | 0 | 0 | 0 | 
3 | C[C@]12C=CC(=O)C=C1CC[C@@H]1[C@@H]2C(=O)C[C@@]2(C)[C@H]1CC[C@]2(O)C(=O)CO [PREDNISONE] | 0 | 0 | 0 | 0 | 0 | 0 | 0 | 0 | 0 | 0 | 0 | 0 | 0 | 0 | 
4 | CCCCS(=O)(=O)N[C@@H](Cc1ccc(OCCCCC2CCNCC2)cc1)C(=O)O [TIROFIBAN] |  |  |  |  |  |  |  |  |  |  |  |  |  |  | HepSE_bilirubinemia (Hepatotoxicity [1]; Liver): 0; HepSE_cholecystitis (Hepatotoxicity [2]; Liver): 0; HepSE_cholelithiasis (Hepatotoxicity [3]; Liver): 0; HepSE_cirrhosis (Hepatotoxicity [4]; Liver): 0; HepSE_elevated liver function tests (Hepatotoxicity [5]; Liver): 0; HepSE_hepatic failure (Hepatotoxicity [6]; Liver): 0; HepSE_hepatic necrosis (Hepatotoxicity [7]; Liver): 0; HepSE_hepatitis (Hepatotoxicity [8]; Liver): 0; HepSE_hepatomegaly (Hepatotoxicity [9]; Liver): 0; HepSE_jaundice (Hepatotoxicity [10]; Liver): 0; HepSE_liver disease (Hepatotoxicity [11]; Liver): 0; HepSE_liver fatty (Hepatotoxicity [12]; Liver): 0; HepSE_liver function tests abnormal (Hepatotoxicity [13]; Liver): 0; HepSE_Combined Scores (Hepatotoxicity [14]; Liver): 0
5 | OXALIPLATIN | 1 | 0 | 0 | 0 | 0 | 0 | 0 | 0 | 0 | 0 | 1 | 0 | 0 | 2 | 
6 | Nc1nc(=O)[nH]cc1F [FLUCYTOSINE] | 0 | 0 | 0 | 0 | 0 | 0 | 0 | 0 | 0 | 1 | 0 | 0 | 0 | 1 | 
7 | CC1=C(C/C=C(\C)CCC[C@H](C)CCC[C@H](C)CCCC(C)C)C(=O)c2ccccc2C1=O [PHYTONADIONE] | 1 | 0 | 0 | 0 | 0 | 0 | 0 | 0 | 0 | 0 | 0 | 0 | 0 | 1 | 
8 | CC[C@@H](CO)NC(=O)[C@@H]1C=C2c3cccc4[nH]cc(c34)C[C@H]2N(C)C1 [METHYLERGONOVINE] | 0 | 0 | 0 | 0 | 0 | 0 | 0 | 0 | 0 | 0 | 0 | 0 | 0 | 0 | 
9 | CCN1C(=O)NC(c2ccccc2)C1=O (configuration not stated) [ETHOTOIN] | 0 | 0 | 0 | 0 | 0 | 0 | 0 | 0 | 0 | 0 | 0 | 0 | 0 | 0 | 
10 | COc1cccc2c1C(=O)c1c(O)c3c(c(O)c1C2=O)C[C@@](O)(C(C)=O)C[C@@H]3O[C@H]1C[C@H](N)[C@H](O)[C@H](C)O1 [DAUNORUBICIN] | 0 | 0 | 0 | 0 | 0 | 0 | 0 | 0 | 1 | 0 | 0 | 0 | 0 | 1 | 
11 | C[N+](C)(C)CCO.Cn1c(=O)c2[n-]cnc2n(C)c1=O [OXTRIPHYLLINE] | 0 | 0 | 0 | 0 | 0 | 0 | 0 | 0 | 0 | 0 | 0 | 0 | 0 | 0 | 
12 | Clc1ccccc1C(c1ccccc1)(c1ccccc1)n1ccnc1 [CLOTRIMAZOLE] | 0 | 0 | 0 | 0 | 0 | 0 | 0 | 0 | 0 | 0 | 0 | 0 | 1 | 1 | 
13 | CNC(=O)c1c(I)c(NC(C)=O)c(I)c(C(=O)[O-])c1I.[Na+] [IOTHALAMATE SODIUM] | 0 | 0 | 0 | 0 | 0 | 0 | 0 | 0 | 0 | 0 | 0 | 0 | 0 | 0 | 
